# According to ChEMBL document CHEMBL1128990, “Design, synthesis, and characterization of dipeptide isostere containing cis-epoxide for the irreversible inactivation of HIV protease” (Bioorg Med Chem Lett, 1996):
# What was measured:
# [1] = target: Human immunodeficiency virus type 1 protease (Human immunodeficiency virus 1, UniProt Q72874); assay: Inhibitory activity against HIV protease was determined
# [2] = target: Human immunodeficiency virus type 1 protease (Human immunodeficiency virus 1) (UniProt Q72874); assay: Kinetic parameter (kina) value was determined for the compound
# Cathepsin D = Cathepsin D (Homo sapiens, UniProt P07339); assay: Inhibitory activity against human cathepsin D was determined
# Cathepsin D, sequence (P07339 65-162 limits assumed): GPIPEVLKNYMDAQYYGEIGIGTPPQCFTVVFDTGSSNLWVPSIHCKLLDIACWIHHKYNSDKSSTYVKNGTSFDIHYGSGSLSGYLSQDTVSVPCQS
# Cathepsin D, sequence (P07339 169-412 limits assumed): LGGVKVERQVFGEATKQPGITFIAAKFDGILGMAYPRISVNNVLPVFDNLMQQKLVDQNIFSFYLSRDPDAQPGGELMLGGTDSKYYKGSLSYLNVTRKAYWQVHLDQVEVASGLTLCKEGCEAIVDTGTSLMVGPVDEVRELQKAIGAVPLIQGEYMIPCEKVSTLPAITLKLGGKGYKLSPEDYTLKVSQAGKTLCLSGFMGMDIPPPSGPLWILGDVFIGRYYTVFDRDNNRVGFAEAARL
Compound,Ki [1],Kina [2],IC50 (Cathepsin D)
CC(C)C(NC(=O)[C@@H]1O[C@@H]1[C@H](Cc1ccccc1)NC(=O)OCc1ccccc1)C(=O)O (stereo partly specified),> 10000 µM,0.02 min⁻¹,
CC(C)C(NC(=O)C[C@H]1O[C@H]1[C@H](Cc1ccccc1)NC(=O)OCc1ccccc1)C(=O)O (stereo partly specified),1.32 µM,1.48 min⁻¹,
CCC(C)C(NC(=O)C[C@H]1O[C@H]1[C@H](Cc1ccccc1)NC(=O)C(CC(N)=O)NC(=O)c1ccc2ccccc2n1)C(=O)O (mixture of isomers),0.018 µM,0.22 min⁻¹,
CC(C)C(NC(=O)C[C@H]1O[C@@H]1[C@H](Cc1ccccc1)NC(=O)OCc1ccccc1)C(=O)O (stereo partly specified),200 µM,0.2 min⁻¹,
CC(C)C(NC(=O)C[C@@H]1O[C@@H]1[C@H](Cc1ccccc1)NC(=O)C(CC(N)=O)NC(=O)c1ccc2ccccc2n1)C(C)C (stereo partly specified),0.001 µM,0.2 min⁻¹,12.5 µM
